Results: BigSolDB 2.1

Cc1ccc(S(=O)(=O)[O-])cc1Cl.[Na+]
Settings | solubility (mole fraction)
in DMF, 280.6 K | 0.0203
in DMF, 286.3 K | 0.0206
in DMF, 291.3 K | 0.0208
in DMF, 297.6 K | 0.0212
in DMF, 304.8 K | 0.0216
in DMF, 310.7 K | 0.0223
in DMF, 314.8 K | 0.0228
in DMF, 319 K | 0.0235
in DMF, 322.1 K | 0.024
in DMF, 327.6 K | 0.0252
in DMF, 333.3 K | 0.0268
in DMSO, 294 K | 0.086
in DMSO, 299.6 K | 0.0868
in DMSO, 304.9 K | 0.0878
in DMSO, 310.6 K | 0.0887
in DMSO, 314.5 K | 0.0894
in DMSO, 319.2 K | 0.0902
in DMSO, 323.5 K | 0.0912
in DMSO, 330.2 K | 0.0929
in DMSO, 335.2 K | 0.0947
in formic acid, 283 K | 0.037
in formic acid, 288.9 K | 0.0383
in formic acid, 295.9 K | 0.0398
in formic acid, 301.4 K | 0.0415
in formic acid, 307.3 K | 0.0431
in formic acid, 313 K | 0.0446
in formic acid, 319.5 K | 0.0458
in formic acid, 324.9 K | 0.0475
in formic acid, 331.1 K | 0.0491
in formic acid, 335.5 K | 0.0503
in methanol, 287.1 K | 0.00409
in methanol, 293 K | 0.00447
in methanol, 297.1 K | 0.0047
in methanol, 302.6 K | 0.00498
in methanol, 306.1 K | 0.00524
in methanol, 311.8 K | 0.0055
in methanol, 316.7 K | 0.00579
in methanol, 321.5 K | 0.00607
in methanol, 327 K | 0.00637
in methanol, 333.1 K | 0.0067
in water, 281 K | 0.00416
in water, 284 K | 0.00437
in water, 288.1 K | 0.00478
in water, 292.2 K | 0.0053
in water, 296.5 K | 0.00592
in water, 301.2 K | 0.00661
in water, 305.6 K | 0.00733
in water, 310.7 K | 0.00835
in water, 314.6 K | 0.0092
in water, 318.7 K | 0.0101
in water, 322.4 K | 0.0111
in water, 326.2 K | 0.0122
in water, 331.1 K | 0.0139
in water, 335.1 K | 0.0154
